# Test results reported in patent US9266877B2, “Apoptosis-inducing agents for the treatment of cancer and immune and autoimmune diseases” (priority 2011, dated 2016).
# pEC50, pKi: −log10 of the molar value. Like-named read-outs stand apart in the source and are kept apart here.
# How the values were obtained:
# [1] = tested on: FL5.12 cells transfected with Bcl-XL; assay: FL5.12 Cellular Assay (cell viability, CellTiter-Glo); format: cell-based, mouse; conditions: for pEC50: mouse FL5.12 cells transfected with Bcl-XL, IL-3-depleted, 3% FBS assay media, 24 hours, read-out: FL5.12 Bcl-xL, IL3, EC 50; for EC50: Mus musculus, FL5.12, 24 h, read-out: FL5.12 Bcl-xL, IL3, EC 50 (nM)
# Experimental: For assaying the compound activity, the cells were exchanged into an IL-3-depleted deprivation media, which was identical to the growth media except for the absence of FBS and WEHI-3B conditional media, for 2 days. Then the cells were exchanged to 3% FBS assay media (RPMI with 2 mM glutamine, 1% 100 mM sodium pyruvate, 2% 1 M HEPES, 4 μL/L of β-mercaptoethanol, 1% penicillin-streptomycin, 3% FBS). Compounds in series dilutions were added, and the cells were cultured for 24 hours. […] Cell viability was assayed using the CellTiter-Glo assay (Promega Corp., Madison, Wis.) according to the manufacturer instructions. Individual determinations were the result of duplicate values.
# [2] = target: Bcl-xL (Homo sapiens (Human), UniProt Q07817); assay: Time Resolved-Fluorescence Resonance Energy Transfer (TR-FRET) binding assay, competition with F-Bak
# Chain of Bcl-xL (Q07817 whole entry): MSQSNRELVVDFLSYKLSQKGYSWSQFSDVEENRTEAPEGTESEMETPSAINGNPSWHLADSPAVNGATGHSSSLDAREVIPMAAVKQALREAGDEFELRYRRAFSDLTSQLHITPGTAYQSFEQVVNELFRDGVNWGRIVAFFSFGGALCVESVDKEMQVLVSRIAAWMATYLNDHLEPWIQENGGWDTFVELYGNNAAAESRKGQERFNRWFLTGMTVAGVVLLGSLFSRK
Structure (SMILES),pEC50 [1],further results
"O=C(Nc1nc2ccccc2s1)c1cccc2c1CN(c1ccc(-c3cnn(Cc4cccnc4)c3)c(C(=O)O)n1)CC2 [Example 3, 6-[8-(1,3-benzothiazol-2-ylcarbamoyl)-3,4-dihydroisoquinolin-2(1H)-yl]-3-[1-(pyridin-3-ylmethyl)-1H-pyrazol-4-yl]pyridine-2-carboxylic acid]",< 6.00,–
"COc1ccc2nc(NC(=O)c3cccc4c3CN(c3ccc(-c5cnn(Cc6ccccc6)c5)c(C(=O)O)n3)CC4)sc2c1 [Example 11, 3-(1-benzyl-1H-pyrazol-4-yl)-6-{8-[(6-methoxy-1,3-benzothiazol-2-yl)carbamoyl]-3,4-dihydroisoquinolin-2(1H)-yl}pyridine-2-carboxylic acid]",< 6.00,–
"COc1cccc(Cn2cc(-c3ccc(N4CCc5cccc(C(=O)Nc6nc7ccccc7s6)c5C4)nc3C(=O)O)cn2)c1 [Example 14, 6-[8-(1,3-benzothiazol-2-ylcarbamoyl)-3,4-dihydroisoquinolin-2(1H)-yl]-3-[1-(3-methoxybenzyl)-1H-pyrazol-4-yl]pyridine-2-carboxylic acid]",< 6.00,–
"O=C(Nc1nc2ccccc2s1)c1cccc2c1CN(c1ccc(-c3cnn(Cc4ccc(Cl)cc4)c3)c(C(=O)O)n1)CC2 [Example 15, 6-[8-(1,3-benzothiazol-2-ylcarbamoyl)-3,4-dihydroisoquinolin-2(1H)-yl]-3-[1-(4-chlorobenzyl)-1H-pyrazol-4-yl]pyridine-2-carboxylic acid]",< 6.00,–
"O=C(Nc1nc2ccccc2s1)c1cccc2c1CN(c1ccc(-c3cnn(Cc4cccc(O)c4)c3)c(C(=O)O)n1)CC2 [Example 17, 6-[8-(1,3-benzothiazol-2-ylcarbamoyl)-3,4-dihydroisoquinolin-2(1H)-yl]-3-[1-(3-hydroxybenzyl)-1H-pyrazol-4-yl]pyridine-2-carboxylic acid]",< 6.00,–
"O=C(Nc1nc2cccc(Cl)c2s1)c1cccc2c1CN(c1ccc(-c3cnn(Cc4ccccc4)c3)c(C(=O)O)n1)CC2 [Example 21, 3-(1-benzyl-1H-pyrazol-4-yl)-6-{8-[(7-chloro-1,3-benzothiazol-2-yl)carbamoyl]-3,4-dihydroisoquinolin-2(1H)-yl}pyridine-2-carboxylic acid]",< 6.00,–
"N#Cc1cccc(Cn2cc(-c3ccc(N4CCc5cccc(C(=O)Nc6nc7ccccc7s6)c5C4)nc3C(=O)O)cn2)c1 [Example 24, 6-[8-(1,3-benzothiazol-2-ylcarbamoyl)-3,4-dihydroisoquinolin-2(1H)-yl]-3-[1-(3-cyanobenzyl)-1H-pyrazol-4-yl]pyridine-2-carboxylic acid]",< 6.00,–
"O=C(Nc1nc2ccccc2s1)c1cccc2c1CN(c1ccc(-c3cnn(Cc4ccccn4)c3)c(C(=O)O)n1)CC2 [Example 26, 6-[8-(1,3-benzothiazol-2-ylcarbamoyl)-3,4-dihydroisoquinolin-2(1H)-yl]-3-[1-(pyridin-2-ylmethyl)-1H-pyrazol-4-yl]pyridine-2-carboxylic acid]",< 6.00,–
"O=C(Nc1nc2ccccc2s1)c1cccc2c1CN(c1ccc(-c3cnn(CCc4ccccc4)c3)c(C(=O)O)n1)CC2 [Example 38, 6-[8-(1,3-benzothiazol-2-ylcarbamoyl)-3,4-dihydroisoquinolin-2(1H)-yl]-3-[1-(2-phenylethyl)-1H-pyrazol-4-yl]pyridine-2-carboxylic acid]",< 6.00,–
"CC(C)(C)Cn1cc(-c2ccc(N3CCc4cccc(C(=O)Nc5nc6ccccc6s5)c4C3)nc2C(=O)O)cn1 [Example 59, 6-[8-(1,3-benzothiazol-2-ylcarbamoyl)-3,4-dihydroisoquinolin-2(1H)-yl]-3-[1-(2,2-dimethylpropyl)-1H-pyrazol-4-yl]pyridine-2-carboxylic acid]",< 6.00,–
"Cc1c(-c2ccc(N3CCc4cccc(C(=O)Nc5nc6ccccc6s5)c4C3)nc2C(=O)O)cnn1C[C@@H]1CC[C@@H]2C[C@H]1C2(C)C [Example 85, 6-[8-(1,3-benzothiazol-2-ylcarbamoyl)-3,4-dihydroisoquinolin-2(1H)-yl]-3-(1-{[(1R,2R,5R)-6,6-dimethylbicyclo[3.1.1]hept-2-yl]methyl}-5-methyl-1H-pyrazol-4-yl)pyridine-2-carboxylic acid]",7.92,–
"COCCCC1(Cn2ncc(-c3ccc(N4CCc5cccc(C(=O)Nc6nc7ccccc7s6)c5C4)nc3C(=O)O)c2C)CCCCC1 [Example 97, 6-[8-(1,3-benzothiazol-2-ylcarbamoyl)-3,4-dihydroisoquinolin-2(1H)-yl]-3-(1-{[1-(3-methoxypropyl)cyclohexyl]methyl}-5-methyl-1H-pyrazol-4-yl)pyridine-2-carboxylic acid]",> 9.00,–
"O=C(Nc1nc2ccccc2s1)c1cccc2c1CN(c1ccc(-c3cccc(Oc4ccccc4)c3)c(C(=O)O)n1)CC2 [Example 103, 6-[8-(1,3-benzothiazol-2-ylcarbamoyl)-3,4-dihydroisoquinolin-2(1H)-yl]-3-(3-phenoxyphenyl)pyridine-2-carboxylic acid]",< 6.00,–
"Cc1c(OC2CCCC(C)(C)C2)cccc1-c1ccc(N2CCc3cccc(C(=O)Nc4nc5ccccc5s4)c3C2)nc1C(=O)O (centres unmarked) [Example 121, 6-[8-(1,3-benzothiazol-2-ylcarbamoyl)-3,4-dihydroisoquinolin-2(1H)-yl]-3-{3-[(3,3-dimethylcyclohexyl)oxy]-2-methylphenyl}pyridine-2-carboxylic acid]",–,EC50 [1]: 87 nM
"Cc1c(-c2ccc(N3CCc4cccc(C(=O)Nc5nc6ccccc6s5)c4C3)nc2C(=O)O)cccc1N(C)C1CCCC(C)(C)C1 (centres unmarked) [Example 159, 6-[8-(1,3-benzothiazol-2-ylcarbamoyl)-3,4-dihydroisoquinolin-2(1H)-yl]-3-{3-[(3,3-dimethylcyclohexyl)(methyl)amino]-2-methylphenyl}pyridine-2-carboxylic acid]",–,pKi [2]: 9.70
"Cc1[nH]c(C#N)c(CC2CCCCC2)c1-c1ccc(N2CCc3cccc(C(=O)Nc4nc5ccccc5s4)c3C2)nc1C(=O)NS(C)(=O)=O [Example 171, N-(1,3-benzothiazol-2-yl)-2-{5-[5-cyano-4-(cyclohexylmethyl)-2-methyl-1H-pyrrol-3-yl]-6-[(methylsulfonyl)carbamoyl]pyridin-2-yl}-1,2,3,4-tetrahydroisoquinoline-8-carboxamide]",–,"EC50 [1]: 97 nM; pKi ([2]; competition with F-Bak probe, GST-Bcl-xL, read-out: TR-FRET binding Bcl-xL Ki): > 10.00"
